From patent EP0353777A2, “New 2,5-disubstituted tetrahydrofuran derivatives” (J. URIACH & CIA. S.A., priority 1988, dated 1990)
Like-named read-outs stand apart in the source and are kept apart here.

Assays:
[1] = tested on: platelet aggregation induced by PAF; assay: Test 1: Inhibition of platelet aggregation induced by PAF; format: cell-based; details: rabbit platelet rich plasma, aggregation induced by PAF (C₁₈) 16 nM final, Born nephelometric technique, read-out: IC₅₀
Protocol: Test 1: Inhibition of platelet aggregation induced by PAF.
The blood is obtained by cardiac puncture of male New Zealand albino rabbits (between 2 and 2.5 Kg of weight) and coagulatlon is prevented by adding 1 part of 3.16% sodium citrate dihydrate in 9 parts of blood. The platelet rich plasma (PRP) is prepared by blood centrifugation at 250xg for 10 min. at 4°C and it is diluted with platelet poor plasma (PPP) obtained by additional centrifugation at 3000xg for 10 min. The amount of platelets is adjusted to […]. The platelet aggregation induced by PAF (C₁₈, prepared in our laboratory) (16 nM, final) is determined by the Born nephelometric technique (J. Physiol., 1962 162, 67) using a aggregometer Chrono-log 500. The activities of the inhibitors are expressed as IC₅₀, that is to say the concentration of the drug needed to inhibit the platelet aggregation in a 50%.

[2] = tested on: hypotension induced by PAF; assay: Test 2: Inhibition of the hypotensive effect induced by PAF in normotense rats; format: in vivo; details: anesthetized male Sprage Dawley rats; compounds given through the femoral vein 3 min. before PAF (0.5 mcg/Kg, i.v.); average arterial pressure
Protocol: Test 2 - Inhibition of the hypotensive effect induced by PAF in normotense rats. Male Sprage Dawley rats, of 180-220 g of weight, anesthetized with sodium pentobarbital (50 mg/Kg, i.p. 1 mL/100 g) have been used. In order to measure the average arterial pressure, a polyethylene catheter is introduced into the carotid artery. The arterial pressure is recorded with the help of a transducer connected with a […] Beckman polygraph. […]

SMILES | IC50 ([1]; Oryctolagus cuniculus) [nM] | CI₅₀ [2] | IC50 [1] [nM]
CCCCCCCCCCCCCCCC1CCC(COCCCCCC[n+]2ccsc2)O1 (mixture of isomers) [Compound 13, (±)-cis,trans-3-[6-[(5-pentadecyl-2-tetrahydrofuranyl)methoxy]hexyl]tiazolium 4-methylbenzenesulfonate] | 1300 |  | 
CCCCCCCCCCCCCCCCOCC1CCC(COC(=O)N(Cc2cccc[n+]2CC)C(C)=O)O1 (mixture of isomers) [Compound 25, (±)-cis,trans-2-[N-acetyl-N-[((5-((hexadecyloxy)methyl)-2-tetrahydrofuranyl)methoxy)carbonyl]aminomethyl]-1-ethylpyridinium iodide] | 74 | 0,036 mg/Kg,i.v. | 
CCCCCCCCCCCCCCCC1CCC(COC(=O)N(Cc2cccc[n+]2CC)C(C)=O)O1 (mixture of isomers) [Compound 11, (±)-cis,trans-2-[N-acetyl-N-[((5-pentadecyl-2-tetrahydrofuranyl)methoxy)carbonyl]aminomethyl]-1-ethylpyridinium iodide] | 95 | 0,15 mg/Kg,i.v. | 
CCCCCCCCCCCCCCCCCC1CCC(COC(=O)N(Cc2cccc[n+]2C)C(C)=O)O1 (mixture of isomers) [Compound 5, (±)-cis,trans-2-[N-acetyl-N-[((5-heptadecyl-2-tetrahydrofuranyl)methoxy)carbonyl]aminomethyl]-1-methylpiridinium iodide] | 1100 | 0,8 mg/Kg,i.v. | 
CCCCCCCCCCCCCCCCC[C@@H]1CC[C@H](COC(=O)N(Cc2cccc[n+]2CC)C(C)=O)O1.[I-] (racemic) [Compound 3, (±)-cis,trans-2-[N-acetyl-N-[((5-heptadecyl-2-tetrahydrofuranyl)methoxy)carbonyl]aminomethyl]-1-ethylpiridinium iodide] |  | 0,15 mg/Kg,i.v. | 71
CCCCCCCCCCCCCCCCC[C@@H]1CC[C@H](COC(=O)N(Cc2cccc[n+]2CC)C(C)=O)O1.[Cl-] (racemic) [Compound 4, (±)-cis,trans-2-[N-acetyl-N-[((5-heptadecyl-2-tetrahydrofuranyl)methoxy)carbonyl]aminomethyl]-1-ethylpiridinium chloride] |  | 0,19 mg/Kg,i.v. | 190
CCCCCCCCCCCCCCCCCNC(=O)OCC1CCC(COC(=O)N(Cc2cccc[n+]2CC)C(C)=O)O1 (mixture of isomers) [Compound 16, (±)-cis,trans-2-[N-acetyl-N-[((5-(((N-heptadecylcarbamoyl)oxy)methyl)-2-tetrahydrofuranyl)methoxy)carbonyl]aminomethyl] -1-ethylpiridinium iodide] | 40 | 0,064 mg/Kg,i.v. | 
CCCCCCCCCCCCCCCCCC1CCC(COC(=O)N(Cc2cccc[n+]2CC)C(=O)OCC)O1 (mixture of isomers) [Compound 7, (±)-cis,trans-2-[N-ethoxycarbonyl-N-[((5-heptadecyl-2-tetrahydrofuranyl)methoxy)carbonyl]aminomethyl]-1-ethylpyridinium iodide] | 130 | 0,34 mg/Kg,i.v. | 
CCCCCCCCCCCCCCCC1CCC(COC(=O)CCCCC[n+]2ccsc2)O1 (mixture of isomers) [Compound 12, (±)-cis,trans-3-[6-[(5-pentadecyl-2-tetrahydrofuranyl)methoxy]-6-oxohexyl] tiazolium 4-methylbenzenesulfonate] | 3100 |  | 
CCCCCCCCCCCCCCCNC(=O)OCC1CCC(COC(=O)N(Cc2cccc[n+]2CC)C(C)=O)O1 (mixture of isomers) [Compound 19, (±)-cis,trans-2-[N-acetyl-N-[((5-(((N-pentadecylcarbamoyl)oxy)methyl)-2-tetrahydrofuranyl)methoxy)carbonyl]aminomethyl] -1-ethylpiridinium iodide] | 54 | 0,098 mg/Kg,i.v. | 
